Laboratory results from US7217722B2 (Kirin Beer Kabushiki Kaisha, priority 2000, dated 2007).
Structures can show the parent of a compound that is named as a salt.

Columns and labels:
[1] = system: Human-derived histiocyte lymphoma (U937/CCR2); experiment: Leukocyte migration inhibitory activity (MCP-1 induced migration, CHEMOTAXICELL); type: cell-based; conditions: U937/CCR2, MCP-1, 1 hr; for inhibition at 0.3 µM: test compound 0.3 μM
Protocol: Human-derived histiocyte lymphoma (U937/CCR2), in which mouse-derived CCR2 had been highly expressed, was suspended in a 0.1% BSA-containing RPMI 1640 medium, to which a test compound had been added (5×10^6/ml), and the suspension was incubated for 20 min. A chemical solution (500 μl) (0.1% BSA-containing RPMI 1640 medium DMSO 1%), to which an MCP-1 ligand (1 μM) and the test compound had been added, was added to a 24-well plate. CHEMOTAXICELL was put thereon, and 200 μl of the cell suspension was added to the top layer, followed by migration under 5% carbon dioxide at 37° C. for one hr. The number of cells, which had migrated to the lower chamber, was counted with a particle count analyzer (CDA-500, SYSMEX CORPORATION), and the percentage migration inhibition was calculated by the following equation; Migration inhibition (%)={1−(number of migrated cells in the presence of test compound/number of migrated cells in the absence of test compound)}×100

[2] = target: Rho kinase (fused protein of bovine Rho kinase catalyst region and glutathione S-transferase) (Bos taurus, UniProt Q28021); experiment: Rho kinase inhibitory activity (phosphorylation of S6 231–239 substrate, γ32P-ATP); type: biochemical; conditions: concentration inhibiting substrate phosphorylation by 50%
Protocol: This permits the substrate to be labeled with the radioisotope.
Thereafter, the substrate was adsorbed to a filter paper. ATP was washed away with a phosphoric acid solution, and the amount of the phosphorylated substrate was then measured with a liquid scintillation counter.

[3] = system: spontaneously hypertensive male rats (SHR); experiment: Antihypertensive activity in spontaneously hypertensive rats; type: in vivo; conditions: Rattus norvegicus, po, 30 mg/kg oral, systolic pressure 3 to 4 hr after administration, mean ± SEM of 3 to 4 SHRs, read-out: Blood pressure depression, %
Protocol: This test was carried out as follows. A test compound was dissolved in purified water, or alternatively the test compound was suspended in a 5% aqueous sodium carboxymethylcellulose solution. The solution or the suspension was forcibly administered into the gaster of SHR through an oral probe. The systolic pressure of SHR was measured with a bloodless sphygmometer (BP-98A, Softron Co.) immediately before the administration of the test compound and 3 to 4 hr after the administration of the test compound or 6 to 7 hr after the administration of the test compound. The percentage of blood pressure depression was calculated by the following equation: Antihypertensive activity (%)={(blood pressure before administration of test compound−blood pressure after administration of test compound)/blood pressure before administration of test compound}×100
Each compound was administered at 30 mg/kg, and the antihypertensive activity (%) was expressed in terms of the mean value of 3 to 4 SHRs and SEM (standard error of the mean).
For data with *, the blood pressure was measured 6 to 7 hr after the administration of the test compound, and, for data with no marks, the blood pressure was measured 3 to 4 hr after the administration of the test compound.

[4] = Homo sapiens, U-937, 1 h, test compound 3 μM, read-out: Migration inhibition (%) ± SEM
[5] = Homo sapiens, U-937, 1 h, test compound 1 μM, read-out: Migration inhibition (%) ± SEM
[6] = Homo sapiens, U-937, 1 h, read-out: Migration inhibition (%) ± SEM
[7] = Homo sapiens, U-937, 1 h, test compound 30 μM, read-out: Migration inhibition (%) ± SEM

Rho kinase (fused protein of bovine Rho kinase catalyst region and glutathione S-transferase), sequence (Q28021 92-354 limits assumed): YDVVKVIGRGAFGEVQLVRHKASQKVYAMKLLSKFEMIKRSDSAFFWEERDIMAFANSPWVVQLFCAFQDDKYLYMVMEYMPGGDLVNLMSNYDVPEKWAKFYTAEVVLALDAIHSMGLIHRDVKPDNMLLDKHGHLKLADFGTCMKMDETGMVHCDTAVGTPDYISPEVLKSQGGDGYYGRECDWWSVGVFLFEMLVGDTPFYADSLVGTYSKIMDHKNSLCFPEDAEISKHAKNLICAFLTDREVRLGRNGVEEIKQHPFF

IC50 [2] [nM] | Compound | inhibition at 3 µM [1, 4] [%] | further results
85 | O=C(NCc1c(F)cccc1F)Nc1ccc2[nH]ncc2c1 [Example 95, N-(2,6-difluorobenzyl)-N′-(1H-5-indazolyl)urea] | 17.1 ± 11.7 | inhibition at 30 µM [1, 7]: 77.6 ± 6.4%
79 | O=C(NCc1c(F)cccc1Cl)Nc1ccc2[nH]ncc2c1 [Example 102, N-(2-chloro-6-fluorobenzyl)-N′-(1H-5-indazolyl)urea] | 6.8 ± 17 | inhibition at 30 µM [1, 7]: 96.7 ± 1%
13 | Clc1ccccc1CN1CCCC(Nc2ccc3[nH]ncc3c2)C1 (stereo not drawn) [Example 161, N-[1-(2-Chlorobenzyl)-3-piperidyl]-N-(1H-5-indazolyl)amine] |  | 
19 | Clc1cccc(CN2CCCC(Nc3ccc4[nH]ncc4c3)C2)c1 (stereo not drawn) [Example 162, N-[1-(3-Chlorobenzyl)-3-piperidyl]-N-(1H-5-indazolyl)amine] |  | 
11 | Clc1ccc(CN2CCCC(Nc3ccc4[nH]ncc4c3)C2)cc1 (stereo not drawn) [Example 163, N-[1-(4-Chlorobenzyl)-3-piperidyl]-N-(1H-5-indazolyl)amine] |  | 
11 | Brc1ccc(CN2CCCC(Nc3ccc4[nH]ncc4c3)C2)cc1 (stereo not drawn) [Example 165, N-[1-(4-Bromobenzyl)-3-piperidyl]-N-(1H-5-indazolyl)amine] |  | 
9 | Cc1ccc(CN2CCCC(Nc3ccc4[nH]ncc4c3)C2)cc1 (stereo not drawn) [Example 167, N-(1H-5-Indazolyl)-N-[1-(4-methylbenzyl)-3-piperidyl]amine] |  | 
265 | c1ccc(NC2CCC(Nc3ccc4[nH]ncc4c3)CC2)cc1 (stereo not drawn) [Example 172, N1-(1H-5-Indazolyl)-N4-phenyl-1,4-cyclohexanediamine] |  | 
446 | O=C(CNCc1ccccc1)Nc1ccc2[nH]ncc2c1 [Example 173, N1-(1H-5-Indazolyl)-2-(benzylamino)acetamide] |  | 
163 | c1ccc(CNCCNc2ccc3[nH]ncc3c2)cc1 [Example 174, N1-Benzyl-N2-(1H-5-indazolyl)-1,2-ethanediamine] |  | 
4 | CC(=O)n1ncc2cc(NC3CCN(Cc4ccccc4)CC3)ccc21 [Example 176, 1-{5-[(1-Benzyl-4-piperidyl)amino]-1H-5-indazolyl}-1-ethanone] |  | 

Continued, compound first:

Compound | IC50 [2] [nM] | inhibition at 3 µM [1, 4] [%] | further results
c1ccc(CCN[C@H]2CC[C@@H](Nc3ccc4[nH]ncc4c3)CC2)cc1 [259 (syn), N1-(1H-5-Indazolyl)-N4-phenylethyl-1,4-cyclohexanediamine] |  | 85.3 ± 8.5 | 
CCCN[C@H]1CC[C@H](Nc2cccc3cnccc23)CC1 [260 (anti)] |  |  | inhibition at 1 µM [1, 5]: 77.4 ± 14.4%
c1cc(NC2CCC(NC3CC3)CC2)c2ccncc2c1 (stereo not drawn) [262 (anti), N1-Cyclopropyl-N4-(5-isoquinolyl)-1,4-cyclohexanediamine] |  |  | inhibition at 0.3 µM [1, 6]: 24.4 ± 8.1%; inhibition at 1 µM [1, 5]: 82.5 ± 6.69%
c1cc(NC2CCC(NC3CC3)CC2)c2ccncc2c1 (stereo not drawn) [262 (syn), N1-Cyclopropyl-N4-(5-isoquinolyl)-1,4-cyclohexanediamine] |  |  | Migration inhibition (%) ± SEM ([1]; test compound 1 μM, 1 µM): 69.9 ± 15.1%
CC(NC(=O)Nc1ccc2c(c1)C(=O)NC2=O)c1ccc(Br)cc1 (stereo not drawn) [Example 20, N-[1-(4-bromophenyl)ethyl]-N′-(1,3-dioxo-2,3-dihydro-1H-5-isoindolyl)urea] | 110 | 46.7 ± 19.4 | inhibition at 30 µM [1, 7]: 95.4 ± 3.4%
Cl.c1ccc(CN2CCCC(Nc3ccc4[nH]ncc4c3)C2)cc1 (stereo not drawn) [Example 21.HCl, N-(1-Benzyl-3-piperidyl)-N(1H-5-indazolyl)amine] |  |  | Migration inhibition (%) ± SEM ([1]; test compound 3 μM): 83.5 ± 3.3%; Migration inhibition (%) ± SEM ([1]; test compound 30 μM): 99.1 ± 0.4%
Brc1ccc(CN2CCC(Nc3ccc4[nH]ncc4c3)CC2)cc1 [Example 22] |  | 34.8 ± 12.4 | inhibition at 30 µM [1, 7]: 92.9 ± 1.3%
O=C(NCc1c(Cl)cccc1Cl)Nc1ccncc1 [Example 80, N-(2,6-dichlorobenzyl)-N′-(4-pyridyl)urea] | 770 | 26 ± 4.7 | inhibition at 30 µM [1, 7]: 65.1 ± 17.3%
O=C(NCc1c(F)cccc1Cl)Nc1ccc2c(c1)C(=O)NC2=O [Example 83, N-(2-chloro-6-fluorobenzyl)-N′-(1,3-dioxo-2,3-dihydro-1H-6-isoindolyl)urea] | 60 | 16.1 ± 9.6 | inhibition at 30 µM [1, 7]: 92.5 ± 3.3%
O=C(NCc1c(F)cccc1F)Nc1ccc2c(c1)C(=O)NC2=O [Example 90, N-(2,6-difluorobenzyl)-N′-(1,3-dioxo-2,3-dihydro-1H-5-isoindolyl)urea] | 69 |  | inhibition at 30 µM [1, 7]: 78.3 ± 3.2%
c1cc2[nH]ncc2cc1NC1CCNCC1 [Example 128, N-(1H-5-indazolyl)-N-(4-piperidyl)amine] | 287 | 2.9 ± 12.3 | inhibition at 30 µM [1, 7]: 45.9 ± 12.3%
c1ccc(CN2CCC(Nc3ccc4[nH]ncc4c3)C2)cc1 (stereo not drawn) [Example 146, N-(1-benzyltetrahydro-1H-pyrrolyl)-N-(1H-5-indazolyl)amine] | 32 | 45.6 ± 9.5 | inhibition at 30 µM [1, 7]: 93.9 ± 1.7%
c1ccc(CN2CCC(Nc3ccc4[nH]ncc4c3)C2)cc1 (stereo not drawn) [Example 146.HCl, N-(1-Benzyltetrahydro-1H-pyrrolyl)-N-(1H-5-indazolyl)amine] |  |  | Migration inhibition (%) ± SEM ([1]; test compound 3 μM, 3 µM): 74.5 ± 1.7%; Migration inhibition (%) ± SEM ([1]; test compound 30 μM, 30 µM): 97.9 ± 1.0%
COc1ccc(CN2CCCC(Nc3ccc4[nH]ncc4c3)C2)cc1 (stereo not drawn) [Example 166, N-(1H-5-Indazolyl)-N-[1-(4-methoxybenzyl)-3-piperidyl]amine] | 16 |  | 
O=[N+]([O-])c1ccc(CN2CCCC(Nc3ccc4[nH]ncc4c3)C2)cc1 (stereo not drawn) [Example 169, N-(1H-5-Indazolyl)-N-[1-(4-nitrobenzyl)-3-piperidyl]amine] | 87 |  | 
COc1cc(CN2CCCC(Nc3ccc4[nH]ncc4c3)C2)cc(OC)c1 (stereo not drawn) [Example 170, N-[1-(3,5-Dimethoxybenzyl)-3-piperidyl]-N-(1H-5-indazolyl)amine] | 80 |  | 
COC(=O)C(c1ccccc1)N1CCCC(Nc2ccc3[nH]ncc3c2)C1 (stereo not drawn) [Example 221, methyl 2-[3-(1H-5-indazolylamino)piperidino]-2-phenylacetate] |  |  | inhibition at 0.03 µM ([1]; Homo sapiens, U-937, 1 h, test compound 0.03 μM, read-out: Migration inhibition (%) ± SEM): 27.5 ± 33.6%; inhibition at 0.3 µM [1, 6]: 90.8 ± 11%
CC(C)C(c1ccccc1)N1CCCC(Nc2ccc3[nH]ncc3c2)C1 (stereo not drawn) [Example 240, N-(1H-5-indazolyl)-N-[1-(2-methyl-1-phenyl-propyl)-3-piperidyl]amine] |  |  | inhibition in vivo at 30 mg/kg [3]: 21.1 ± 6.5%
CCCN[C@H]1CC[C@@H](Nc2ccc3[nH]ncc3c2)CC1 [Example 243 (syn), N1-(1H-5-Indazolyl)-N4-propyl-1,4-cyclohexanediamine] |  |  | inhibition in vivo at 30 mg/kg [3]: 26.4 ± 5%
CCCNC1CCC(Nc2ccc3[nH]ncc3c2)CC1 (stereo not drawn) [Example 243, N1-(1H-5-indazolyl)-N4-propyl-1,4-cyclohexanediamine] |  | 82.8 ± 7.1 | 
CCCC(C)CN1CCCC(Nc2ccc3[nH]ncc3c2)C1 (stereo not drawn) [Example 281, N-(1H-5-indazolyl)-N-[1-(2-methylpentyl)-3-piperidyl]amine] |  | 100 ± 8.2 | 
Fc1cc(F)c(CN2CCCC(Nc3ccc4[nH]ncc4c3)C2)c(F)c1 (stereo not drawn) [Example 282, N-(1H-5-indazolyl)-N-[1-(2,4,6-trifluorobenzyl)-3-piperidyl]amine] |  |  | inhibition at 1 µM [1, 5]: 29.9 ± 4.1%
Fc1ccc(CN2CCCC(Nc3ccc4[nH]ncc4c3)C2)c(Cl)c1 (stereo not drawn) [Example 293, N-[1-(2-chloro-4-fluorobenzyl)-3-piperidyl]-N-(1H-5-indazolyl)amine] |  | 93.5 ± 9.9 | 
COC(=O)C(c1ccc(F)c(F)c1)N1CCCC(Nc2ccc3[nH]ncc3c2)C1 (stereo not drawn) [Example 294] |  |  | inhibition at 0.1 µM ([1]; Homo sapiens, U-937, 1 h, test compound 0.1 μM, read-out: Migration inhibition (%) ± SEM): 87.4 ± 6.4%; inhibition at 0.3 µM [1, 6]: 98.3 ± 1.4%
CCC(CC)CN1CCC(Nc2cccc3cnccc23)CC1 [Example 320, N-[1-(2-ethylbutyl)-4-piperidyl]-N-(5-isoquinolyl)amine] |  |  | inhibition at 1 µM [1, 5]: 82.9 ± 7%
